Laboratory results published in paper PMC9555642 (PLoS ONE, 2022).

Key:
[1] = molecular target: T1, HDAC8 (Homo sapiens, UniProt Q9BY41); assay: HDAC enzymatic activity (Eurofins); format: biochemical; settings: Class I; ACY-1083 mean of two separate measurements, Ricolinostat and Tubastatin A one measurement
T1 construct: purchased Eurofins Pharma Discovery Services 2247
T1 sequence (Q9BY41 1-377): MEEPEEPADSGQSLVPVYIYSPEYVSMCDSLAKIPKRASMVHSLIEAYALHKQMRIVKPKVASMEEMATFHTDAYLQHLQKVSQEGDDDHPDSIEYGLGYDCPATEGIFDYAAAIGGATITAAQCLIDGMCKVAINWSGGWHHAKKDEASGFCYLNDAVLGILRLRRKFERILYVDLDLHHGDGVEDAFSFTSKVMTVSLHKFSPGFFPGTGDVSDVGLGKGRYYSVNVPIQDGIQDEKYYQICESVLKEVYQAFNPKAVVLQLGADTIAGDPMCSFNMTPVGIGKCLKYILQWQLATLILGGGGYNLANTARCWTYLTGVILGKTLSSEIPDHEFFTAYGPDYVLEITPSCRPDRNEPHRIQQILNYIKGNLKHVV

[2] = molecular target: T2, cyclooxygenase 2 (COX2) (Homo sapiens, UniProt P35354); assay: Secondary pharmacology panel (Eurofins); format: biochemical
T2 construct: purchased Eurofins Pharma Discovery Services
T2 sequence (P35354 18-604): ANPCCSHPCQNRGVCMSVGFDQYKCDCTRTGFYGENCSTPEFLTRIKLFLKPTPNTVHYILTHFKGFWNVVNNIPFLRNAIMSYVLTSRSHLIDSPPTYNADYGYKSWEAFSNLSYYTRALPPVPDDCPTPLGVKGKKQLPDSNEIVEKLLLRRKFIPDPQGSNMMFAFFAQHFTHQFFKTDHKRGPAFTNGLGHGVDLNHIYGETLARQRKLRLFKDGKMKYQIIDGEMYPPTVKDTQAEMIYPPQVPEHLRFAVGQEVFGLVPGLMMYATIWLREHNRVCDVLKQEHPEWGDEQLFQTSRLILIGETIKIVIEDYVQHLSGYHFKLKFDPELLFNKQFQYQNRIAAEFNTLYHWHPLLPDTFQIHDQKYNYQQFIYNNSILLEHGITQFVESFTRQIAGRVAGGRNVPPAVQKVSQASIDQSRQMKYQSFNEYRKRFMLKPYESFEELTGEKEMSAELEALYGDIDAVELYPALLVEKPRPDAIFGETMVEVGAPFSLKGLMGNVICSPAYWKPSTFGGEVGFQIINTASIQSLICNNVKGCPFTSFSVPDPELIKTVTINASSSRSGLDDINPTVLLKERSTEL
Procedure: Second pharmacology screening was performed at Eurofins Pharma Discovery Services in a panel of 190 in vitro radioligand binding and enzyme assays covering a diverse set of enzymes, receptors, ion channels, and transporters.

[3] = tested on: COPD HBEC ALI cultures; assay: Western blot of membrane protein from ALI cell cultures; format: cell-based, human; settings: 10 μM, TNF-challenged, four COPD donors, trend observed
Procedure: For extraction of membrane and cytosol proteins the cells were lysed according to the Mem-PER Plus Membrane Protein Kit protocol (#89842, ThermoFisher Scientific). The supernatants were kept frozen in −80°C until total protein quantification. Quantification of total protein in the lysates was done using Pierce BCA Protein Assay Kit (#23227, Thermo Scientific) following the manufacturer´s instructions. Lysates containing 8 μg total protein were mixed with NuPAGE LDS Sample buffer 4x (NP007, Invitrogen), NuPAGE Sample Reducing Agent 10x (NP004, Invitrogen) and deionized water and then heated for ten minutes at 70°C. The samples were loaded onto NuPAGE 4–12% Bis-Tris Gels (NP0335, Invitrogen) and run at 120V for 100 minutes in NuPAGE MOPS SDS Running buffer (NP0001, Invitrogen). The proteins were transferred to nitrocellulose membranes (LC2001, Invitrogen) at 35 mA overnight using NuPAGE Transfer buffer (NP0006, Invitrogen) supplemented with 20% methanol. The membranes were stained with Revert Total Protein Stain (926–11011, LI-COR Biosciences) for five minutes, washed and then imaged in the 700 nm channel using Odyssey CLX imaging system (LI-COR Biosciences). To correct for variation in loading the total signal intensity of all proteins in each lane were used for normalization. An inter-membrane control sample was loaded to all gels to assure there were no differences due to methodology between the blots. The stain was removed with Revert Destaining Solution (926–11013, LI-COR Biosciences) and the membranes were blocked in Intercept (TBS) Blocking Buffer (927–60001, LI-COR Biosciences) for one hour on a shaker. […] After a final wash, three times for ten minutes in TBS-T, the fluorescent signals were detected using the Odyssey CLX imaging system and the signals were analysed using Image Studio software (v4.0, LI-COR Biosciences).

[4] = tested on: COPD HBEC ALI cultures; assay: Mucociliary clearance (bead tracking), TNF challenge; format: cell-based, human; settings: TNF 20 ng/ml, day ten, 3 COPD donors, p = 0.0026
Procedure: In the TNF (20 ng/ml) challenged cultures, the apical surfaces were washed with pre-warmed PBS the day before addition of 50 μL of CountBright Absolute Counting beads (Invitrogen, Carlsbad, CA, USA) diluted 1:10 000 in PBS with Mg^2+ and Ca^2+. Inserts were transferred to a 12-well glass bottom plate (Cellvis, Mountain View, USA) and monitored in a Zeiss LSM 880 (Carl Zeiss AG, Oberkochen, Germany) at 37°C. Three regions in each well of each condition in three COPD donors were filmed and analyzed. Beads were tracked in the ImageJ software with the Fiji plugin Tracking and the mean velocity of each bead was plotted.

- IC50 [1]: 15.8 µM
- IC50 [2]: 6.48 µM
Substance: ACY-1083
- E-cadherin level in membrane fraction [3]: not significantly higher
- Occludin level in membrane fraction [3]: not significantly higher
- β-catenin level in membrane fraction [3]: not significantly higher
- bead velocity (mucociliary clearance) [4]: significantly protected from reduction in speed
